Measurements taken from patent US9248119B2, “Modified release dosage forms of xanthine oxidoreductase inhibitor or xanthine oxidase inhibitors” (Takeda Pharmaceuticals U.S.A., Inc., priority 2010, dated 2016).
Where two headings read alike, the source gives them in different places.

Target: xanthine oxidase (Homo sapiens, UniProt P47989)
Sequence (P47989 whole entry): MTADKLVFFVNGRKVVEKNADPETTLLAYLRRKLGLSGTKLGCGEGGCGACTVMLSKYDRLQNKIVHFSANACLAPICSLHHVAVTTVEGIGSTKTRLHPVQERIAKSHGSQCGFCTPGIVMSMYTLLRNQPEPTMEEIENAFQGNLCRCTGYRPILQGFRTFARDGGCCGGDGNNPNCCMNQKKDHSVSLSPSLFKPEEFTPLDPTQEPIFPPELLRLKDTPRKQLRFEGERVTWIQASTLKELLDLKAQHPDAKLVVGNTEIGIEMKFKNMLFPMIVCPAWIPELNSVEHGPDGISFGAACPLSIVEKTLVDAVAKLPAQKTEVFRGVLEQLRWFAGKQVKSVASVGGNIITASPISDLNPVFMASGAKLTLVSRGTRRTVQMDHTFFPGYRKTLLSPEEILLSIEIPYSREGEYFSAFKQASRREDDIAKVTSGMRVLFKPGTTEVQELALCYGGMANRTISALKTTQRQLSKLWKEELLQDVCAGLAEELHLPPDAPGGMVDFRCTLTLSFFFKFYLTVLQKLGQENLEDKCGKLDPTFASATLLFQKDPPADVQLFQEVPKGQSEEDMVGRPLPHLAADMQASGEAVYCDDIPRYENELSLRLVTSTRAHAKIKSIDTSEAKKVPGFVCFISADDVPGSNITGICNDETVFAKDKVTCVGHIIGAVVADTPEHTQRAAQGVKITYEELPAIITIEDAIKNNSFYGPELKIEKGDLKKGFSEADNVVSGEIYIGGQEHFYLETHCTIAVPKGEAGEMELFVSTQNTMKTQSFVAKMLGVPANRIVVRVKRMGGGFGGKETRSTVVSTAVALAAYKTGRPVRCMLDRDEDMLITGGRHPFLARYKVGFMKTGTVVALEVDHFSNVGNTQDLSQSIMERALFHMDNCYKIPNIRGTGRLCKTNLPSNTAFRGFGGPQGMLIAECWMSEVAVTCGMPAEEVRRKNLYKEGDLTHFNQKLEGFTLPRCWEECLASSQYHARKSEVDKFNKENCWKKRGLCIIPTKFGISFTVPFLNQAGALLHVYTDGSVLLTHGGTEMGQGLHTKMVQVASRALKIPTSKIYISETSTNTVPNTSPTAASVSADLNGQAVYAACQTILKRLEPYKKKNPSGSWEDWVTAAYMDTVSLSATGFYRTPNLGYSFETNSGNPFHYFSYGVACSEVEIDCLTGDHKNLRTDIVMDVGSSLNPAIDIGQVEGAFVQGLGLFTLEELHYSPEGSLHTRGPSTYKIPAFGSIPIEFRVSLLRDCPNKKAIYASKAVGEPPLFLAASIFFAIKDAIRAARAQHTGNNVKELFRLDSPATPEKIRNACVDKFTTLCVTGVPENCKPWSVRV

Cc1nc(-c2ccc(OCC(C)C)c(C#N)c2)sc1C(=O)O [Febuxostat, 2-[3-cyano-4-(2-methylpropoxy)phenyl]-4-methylthiazole-5-carboxylic acid]
Percentage Inhibition of xanthine oxidase (IR 10 mg QD, 8 hours post dose): 43.6% | Percentage Inhibition of xanthine oxidase (IR 10 mg QD, 12 hours post dose): 27.3% | Percentage Inhibition of xanthine oxidase (IR 10 mg QD, 16 hours post dose): 0% | Percentage Inhibition of xanthine oxidase (IR 10 mg QD, 24 hours post dose): 0% | Percentage Inhibition of xanthine oxidase (IR 20 mg QD, 8 hours post dose): 55.9% | Percentage Inhibition of xanthine oxidase (IR 20 mg QD, 12 hours post dose): 54.0% | Percentage Inhibition of xanthine oxidase (IR 20 mg QD, 16 hours post dose): 42.8% | Percentage Inhibition of xanthine oxidase (IR 20 mg QD, 24 hours post dose): 0% | Percentage Inhibition of xanthine oxidase (IR 30 mg QD, 8 hours post dose): 62.3% | Percentage Inhibition of xanthine oxidase (IR 30 mg QD, 12 hours post dose): 52.5% | Percentage Inhibition of xanthine oxidase (IR 30 mg QD, 16 hours post dose): 37.1% | Percentage Inhibition of xanthine oxidase (IR 30 mg QD, 24 hours post dose): 35.9% | Percentage Inhibition of xanthine oxidase (IR 40 mg QD, 8 hours post dose): 69.8% | Percentage Inhibition of xanthine oxidase (IR 40 mg QD, 12 hours post dose): 55.9% | Percentage Inhibition of xanthine oxidase (IR 40 mg QD, 16 hours post dose): 43.3% | Percentage Inhibition of xanthine oxidase (IR 40 mg QD, 24 hours post dose): 36.2% | Percentage Inhibition of xanthine oxidase (IR 50 mg QD, 8 hours post dose): 77.9% | Percentage Inhibition of xanthine oxidase (IR 50 mg QD, 12 hours post dose): 64.9% | Percentage Inhibition of xanthine oxidase (IR 50 mg QD, 16 hours post dose): 49.1% | Percentage Inhibition of xanthine oxidase (IR 50 mg QD, 24 hours post dose): 38.5% | Percentage Inhibition of xanthine oxidase (IR 70 mg QD, 8 hours post dose): 81.2% | Percentage Inhibition of xanthine oxidase (IR 70 mg QD, 12 hours post dose): 66.3% | Percentage Inhibition of xanthine oxidase (IR 70 mg QD, 16 hours post dose): 56.0% | Percentage Inhibition of xanthine oxidase (IR 70 mg QD, 24 hours post dose): 35.3% | Percentage Inhibition of xanthine oxidase (IR 90 mg QD, 8 hours post dose): 85.6% | Percentage Inhibition of xanthine oxidase (IR 90 mg QD, 12 hours post dose): 77.7% | Percentage Inhibition of xanthine oxidase (IR 90 mg QD, 16 hours post dose): 68.1% | Percentage Inhibition of xanthine oxidase (IR 90 mg QD, 24 hours post dose): 50.3% | Percentage Inhibition of xanthine oxidase (IR 120 mg QD, 8 hours post dose): 89.0% | Percentage Inhibition of xanthine oxidase (IR 120 mg QD, 12 hours post dose): 82.6% | Percentage Inhibition of xanthine oxidase (IR 120 mg QD, 16 hours post dose): 75.8% | Percentage Inhibition of xanthine oxidase (IR 120 mg QD, 24 hours post dose): 60.5% | time for which at least 80% inhibition of xanthine oxidase is provided (IR 120 mg, Table 2): ≤ 16 h | Percentage Inhibition of xanthine oxidase (IR 160 mg QD, 8 hours post dose): 93.9% | Percentage Inhibition of xanthine oxidase (IR 160 mg QD, 12 hours post dose): 90.9% | Percentage Inhibition of xanthine oxidase (IR 160 mg QD, 16 hours post dose): 81.4% | Percentage Inhibition of xanthine oxidase (IR 160 mg QD, 24 hours post dose): 67.6% | Percentage Inhibition of xanthine oxidase (IR 180 mg QD, 8 hours post dose): 94.7% | Percentage Inhibition of xanthine oxidase (IR 180 mg QD, 12 hours post dose): 91.7% | Percentage Inhibition of xanthine oxidase (IR 180 mg QD, 16 hours post dose): 81.5% | Percentage Inhibition of xanthine oxidase (IR 180 mg QD, 24 hours post dose): 68.4% | Percentage Inhibition of xanthine oxidase (IR 240 mg QD, 8 hours post dose): 95.7% | Percentage Inhibition of xanthine oxidase (IR 240 mg QD, 12 hours post dose): 91.4% | Percentage Inhibition of xanthine oxidase (IR 240 mg QD, 16 hours post dose): 86.5% | Percentage Inhibition of xanthine oxidase (IR 240 mg QD, 24 hours post dose): 72.4%
